US12414960B2, “Analogues of oleuropein and oleacein and uses thereof” (Attica Sciences Ltd., priority 2020, dated 2025)
Like-named read-outs stand apart in the source and are kept apart here.

Assays:
[1] = Ferric reducing antioxidant power (FRAP) assay; type: biochemical; conditions: NS = not statistically significant
Source text: Reducing power is associated with antioxidant activity and may serve as a significant reflection of the antioxidant activity. Compounds with reducing power indicate that they are electron donors and can reduce the oxidized intermediates of lipid peroxidation processes, so that they can act as primary and secondary antioxidants.
In this assay, the yellow color of the test solution changes to various shades of green and blue depending on the reducing power of each compound. Presence of reducers causes the conversion of the Fe3+/ferricyanide complex used in this method to the ferrous form which when it reacts with iron chloride it gives a complex which absorbs at 700 nm. The higher the absorption at 700 nm, the greater the reducing capacity (FIG. 6).
The ferric reducing antioxidant capacity of the GS compounds was investigated by using the potassium ferricyanide-ferric chloride method (Tundis, Rosa et al. LWT—Food Science and Technology, 2013, 53: 370-377). Briefly, 0.2 mL of each of the GS compounds, 2.5 mL of phosphate buffer (0.2 M, pH 6.6), and 2.5 mL of potassium ferricyanide K3Fe(CN)6 (1%) were mixed and incubated at 50° C. for 20 min, to reduce ferricyanide into ferrocyanide. The reaction was stopped by adding 2.5 mL of 10% (w/v) trichloroacetic acid followed by centrifugation at 1000 rpm for 10 min. Finally, 2.5 mL of the upper layer was mixed with 2.5 mL of distilled water and 0.5 mL of FeCl3 (0.1%) and the absorbance was measured at 700 nm.

[2] = biological target: T1, ATP-citrate lyase (ACLY) (Homo sapiens, UniProt P53396); experiment: ACLY Assay Kit (ADP-Glo) enzymatic activity; type: biochemical
T1 construct: purchased BPS Bioscience
T1 sequence (P53396 1-1101): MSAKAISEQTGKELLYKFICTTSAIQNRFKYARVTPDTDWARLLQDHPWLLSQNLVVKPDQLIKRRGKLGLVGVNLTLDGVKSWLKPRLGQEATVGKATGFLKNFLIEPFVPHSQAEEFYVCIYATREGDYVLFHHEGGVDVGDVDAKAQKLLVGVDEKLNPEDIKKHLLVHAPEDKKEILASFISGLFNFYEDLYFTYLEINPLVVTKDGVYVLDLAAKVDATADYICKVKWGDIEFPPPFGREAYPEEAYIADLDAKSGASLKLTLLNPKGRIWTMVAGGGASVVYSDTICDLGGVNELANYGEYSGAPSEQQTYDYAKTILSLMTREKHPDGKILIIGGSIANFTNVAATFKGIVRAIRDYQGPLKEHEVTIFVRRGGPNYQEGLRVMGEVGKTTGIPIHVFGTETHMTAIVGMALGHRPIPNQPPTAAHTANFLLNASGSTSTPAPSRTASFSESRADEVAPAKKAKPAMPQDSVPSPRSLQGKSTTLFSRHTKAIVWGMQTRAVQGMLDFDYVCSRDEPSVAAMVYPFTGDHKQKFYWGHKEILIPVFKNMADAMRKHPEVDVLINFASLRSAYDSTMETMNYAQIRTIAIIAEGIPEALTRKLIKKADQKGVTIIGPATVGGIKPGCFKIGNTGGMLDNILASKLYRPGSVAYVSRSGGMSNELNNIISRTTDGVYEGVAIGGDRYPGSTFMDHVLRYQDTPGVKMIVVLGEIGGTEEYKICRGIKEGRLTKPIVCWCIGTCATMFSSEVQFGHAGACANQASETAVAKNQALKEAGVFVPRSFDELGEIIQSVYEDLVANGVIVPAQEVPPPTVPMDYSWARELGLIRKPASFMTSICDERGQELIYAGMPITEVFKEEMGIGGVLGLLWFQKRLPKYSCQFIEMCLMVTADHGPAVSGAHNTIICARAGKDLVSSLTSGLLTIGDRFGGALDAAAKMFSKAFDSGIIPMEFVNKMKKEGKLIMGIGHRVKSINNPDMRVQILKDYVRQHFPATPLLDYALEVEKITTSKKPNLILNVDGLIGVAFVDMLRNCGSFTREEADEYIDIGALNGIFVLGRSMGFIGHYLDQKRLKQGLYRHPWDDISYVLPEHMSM
Source text: An ACLY Assay Kit (BPS Bioscience) was used to evaluate GS27 against ATP-citrate lyase (ACLY) enzymatic activity. The ACLY Assay Kit is designed to measure ACLY activity for screening and profiling applications using ADP-Glo™ Kinase Assay as a detection reagent (Promega #V6930). The ADP-Glo™ Kinase Assay is a luminescent ADP detection assay that provides a universal, homogeneous, high-throughput screening method to measure kinase activity by quantifying the amount of ADP produced during a kinase reaction. Multiple (1, 10, 100, 250, 500, 1000, 2000 nM) GS27 concentrations were used to evaluate GS27 IC50 activity.

[3] = same assay as GS27, read-out: IC50 against ACLY enzyme

SMILES	Ferric Reducing Power Antioxidant Assay RP0.5AU [1] [μg extract/mL]	IC50 [2, 3] [µM]	IC50 ([2]; 1-2000 nM tested, read-out: IC50 of ACLY activity) [µM]
C/C=C1/[C@H](OC2OC(CO)C(O)C(O)C2O)OC=C(C(=O)O)[C@H]1CC(=O)OCCc1ccc(O)c(O)c1 (stereo in doubt) [GS6, (2S,4S,E)-4-(2-(3,4-dihydroxyphenethoxy)-2-oxoethyl)-3-ethylidene-2{[(2R,3S,4R,5R,6S)-3,4,5-trihydroxy-6-(hydroxymethyl)tetrahydro-2H-pyran-2-yl]oxy}-3,4dihydro-2H-pyran-5-carboxylic acid]	36	–	–
C/C=C1/[C@H](O[C@@H]2O[C@H](CO)[C@@H](O)[C@H](O)[C@H]2O)OC=C(C(=O)OC)[C@H]1CC(=O)OCCc1ccc(O)c(O)c1 [GS1, oleuropein]	35	> 10	–
C/C=C(/C=O)[C@@H](CC=O)CC(=O)OCCc1ccc(O)c(O)c1 [GS17, (3S,4E)-4-formyl-3-(2-oxoethyl)-4-hexenoic acid 2-(3,4-dihydroxyphenyl)ethyl ester, reference compound]	4.48	–	–
C/C=C(/C=O)[C@@H](CC=O)CC(=O)OCCc1ccc(O)cc1 [GS19, (3S,4E)-4-formyl-3-(2-oxoethyl)-4-hexenoic acid 2-(4-hydroxyphenyl)ethyl ester, reference compound]	133	> 10	–
C/C=C(/C=O)[C@@H](CC=O)CC(=O)SCCc1ccccc1 [GS27, S-phenethyl (3S,4E)-4-formyl-3-(2-oxoethyl)hex-4-enethioate]	–	–	0.0815
